What all share (format): cell-based
For test [1], the target named is T1, Atypical chemokine receptor 3 (Homo sapiens, UniProt P25106). The test can be described thus: Displacement of [125I]SDF-1alpha from ACKR3 (unknown origin) expressed in CHO cells at 30 uM after 1 hr by scintillation counting method.
Test [2] has as its target C-X-C chemokine receptor type 4 (Homo sapiens, UniProt P61073). The experiment in a line: Displacement of [125I]SDF-1alpha from CXCR4 (unknown origin) expressed in HEK293 cells after 1 hr by scintillation counting method.
Test [3] has as its target Atypical chemokine receptor 3 (Homo sapiens, UniProt P25106, D275N). The test can be described thus: Activation of YFP-tagged ACKR3 D275N mutant (unknown origin) expressed in HEK293E cells assessed as induction of Rluc-tagged beta-arrestin-2 recruitment after 30 mins by BRET assay.
The target of test [4] is T1, Atypical chemokine receptor 3. The experiment in a line: Displacement of [125I]SDF-1alpha from ACKR3 (unknown origin) expressed in CHO cells after 1 hr by scintillation counting method.
For test [5], the target named is Atypical chemokine receptor 3 (Homo sapiens, UniProt P25106, D179N). The experiment in a line: Activation of YFP-tagged ACKR3 D179N mutant (unknown origin) expressed in HEK293E cells assessed as induction of Rluc-tagged beta-arrestin-2 recruitment after 30 mins by BRET assay.
Chain of Atypical chemokine receptor 3 (Homo sapiens, UniProt P25106, D179N) (P25106 whole entry D179N): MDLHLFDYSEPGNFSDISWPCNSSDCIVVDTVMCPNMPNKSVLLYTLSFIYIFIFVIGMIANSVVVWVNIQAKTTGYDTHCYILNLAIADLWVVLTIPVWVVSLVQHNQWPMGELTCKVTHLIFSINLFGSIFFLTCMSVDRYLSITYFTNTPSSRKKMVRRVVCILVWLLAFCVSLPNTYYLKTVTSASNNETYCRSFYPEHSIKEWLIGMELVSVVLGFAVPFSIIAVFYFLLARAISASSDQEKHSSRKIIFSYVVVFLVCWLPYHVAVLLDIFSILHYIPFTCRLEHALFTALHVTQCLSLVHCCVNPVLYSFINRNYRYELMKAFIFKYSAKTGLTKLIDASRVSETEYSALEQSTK
The target in test [6] is Atypical chemokine receptor 3 (Homo sapiens, UniProt P25106, S198R). The test can be described thus: Activation of YFP-tagged ACKR3 S198R mutant (unknown origin) expressed in HEK293E cells assessed as induction of Rluc-tagged beta-arrestin-2 recruitment after 30 mins by BRET assay.
Chain of Atypical chemokine receptor 3 (Homo sapiens, UniProt P25106, S198R) (P25106 whole entry S198R): as the sequence (P25106 whole entry D179N) above, with N179D, S198R counted along it
For test [7], the target named is T1, Atypical chemokine receptor 3. The experiment in a line: Activation of YFP-tagged ACKR3 (unknown origin) expressed in HEK293E cells assessed as induction of Rluc-tagged beta-arrestin-2 recruitment after 30 mins by BRET assay.

The source made the active and inactive calls. The calls are words filed in the database; no cut-off is given here.

T1 sequence (P25106 whole entry): as the sequence (P25106 whole entry D179N) above, with N179D counted along it
Chain of Atypical chemokine receptor 3 (Homo sapiens, UniProt P25106, D275N) (P25106 whole entry D275N): as the sequence (P25106 whole entry D179N) above, with N179D, D275N counted along it
Chain of C-X-C chemokine receptor type 4 (P61073 whole entry): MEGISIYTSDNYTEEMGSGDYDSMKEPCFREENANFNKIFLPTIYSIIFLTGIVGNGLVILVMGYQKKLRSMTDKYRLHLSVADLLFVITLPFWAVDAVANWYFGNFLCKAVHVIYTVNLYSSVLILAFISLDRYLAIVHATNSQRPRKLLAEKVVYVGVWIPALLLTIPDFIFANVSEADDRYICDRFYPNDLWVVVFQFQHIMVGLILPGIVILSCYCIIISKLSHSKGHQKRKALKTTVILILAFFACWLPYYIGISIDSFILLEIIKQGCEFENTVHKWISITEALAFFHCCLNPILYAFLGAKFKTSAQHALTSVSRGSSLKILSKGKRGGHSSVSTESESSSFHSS

With `CN1C(=O)[C@H](CCCNC(=N)N)NC(=O)[C@@H](Cc2ccc(O)cc2)NC(=O)[C@@H]2CCCN2C(=O)[C@H](Cc2ccc3ccccc3c2)NC(=O)[C@@H]1CC(=O)O`, the inhibition entry in test [1] was “inactive”. The same molecule returned an IC50 in test [2] greater than 30000 nM.
For `CN1C(=O)[C@H](CCCNC(=N)N)NC(=O)[C@@H](Cc2ccc(O)cc2)NC(=O)[C@@H]2CCCN2C(=O)[C@H](Cc2ccc3ccccc3c2)NC(=O)[C@@H]1CCC(=O)O`, in that order: “inactive” and greater than 30000 nM.
On to `CN1C(=O)[C@H](CCCNC(=N)N)NC(=O)[C@@H](Cc2ccc(O)cc2)NC(=O)[C@H](Cc2cccc3ccccc23)N(C)C(=O)[C@H](Cc2ccc3ccccc3c2)NC(=O)[C@@H]1CCCNC(N)=O`, for which the EC50 is 5500 nM in test [3] (read-out: EC50); 6310 nM in test [3] (read-out: pEC50 (converted)); 110 nM in test [5] (read-out: EC50); 126 nM in test [5] (read-out: pEC50 (converted)); 1900 nM in test [6] (read-out: EC50); 490 nM in test [7]. For the same molecule, the concentration for half-maximal inhibition (IC50) in test [4] was determined as 170 nM; in test [2], 17000 nM.
For `CN1C(=O)[C@H](CC(N)=O)NC(=O)[C@@H](Cc2ccc(O)cc2)NC(=O)[C@@H]2CCCN2C(=O)[C@H](Cc2ccc3ccccc3c2)NC(=O)[C@@H]1CCCNC(=N)N`, the inhibition result in test [1] was “inactive”. This molecule also registered a 50% inhibitory concentration (IC50) in test [2] greater than 30000 nM.
Consider `CN1C(=O)[C@H](CCC(=O)O)NC(=O)[C@@H](Cc2ccc(O)cc2)NC(=O)[C@@H]2CCCN2C(=O)[C@H](Cc2ccc3ccccc3c2)NC(=O)[C@@H]1CCCNC(=N)N`, for which the inhibition result in test [1] was “inactive”. This molecule showed an IC50 in test [2] greater than 30000 nM.
As to `CN1C(=O)[C@H](CCNC(=N)N)NC(=O)[C@@H](Cc2ccc(O)cc2)NC(=O)[C@@H]2CCCN2C(=O)[C@H](Cc2ccc3ccccc3c2)NC(=O)[C@@H]1CCCNC(=N)N`, the half-inhibitory concentration (IC50) in test [4] was 2600 nM; in test [2], greater than 30000 nM.
For `CN1C(=O)[C@H](CO)NC(=O)[C@@H](Cc2ccc(O)cc2)NC(=O)[C@@H]2CCCN2C(=O)[C@H](Cc2ccc3ccccc3c2)NC(=O)[C@@H]1CCCNC(=N)N`, in that order: 2000 to 24000 nM and greater than 30000 nM.
For `CN1C(=O)[C@H](CCCNC(=N)N)NC(=O)[C@@H](Cc2ccc(O)cc2)NC(=O)[C@@H]2Cc3ccccc3CN2C(=O)[C@H](Cc2ccc3ccccc3c2)NC(=O)[C@@H]1CCCNC(N)=O`, in that order: 4200 nM and greater than 30000 nM.
For `CN1C(=O)[C@H](CCCNC(=N)N)NC(=O)[C@@H](Cc2csc3ccccc23)NC(=O)[C@@H]2CCCN2C(=O)[C@H](Cc2ccc3ccccc3c2)NC(=O)[C@@H]1CCCNC(N)=O` the same measures were 540 nM and greater than 30000 nM.
For `CN1C(=O)[C@H](CCCNC(=N)N)NC(=O)[C@@H](Cc2ccccc2)NC(=O)[C@@H]2CCCN2C(=O)[C@H](Cc2ccc3ccccc3c2)NC(=O)[C@@H]1CCCNC(N)=O`, the IC50 in test [4] was 1100 nM; in test [2], greater than 30000 nM.
As for `CN1C(=O)[C@@H](CS)NC(=O)[C@@H](Cc2ccc(O)cc2)NC(=O)[C@@H]2CCCN2C(=O)[C@H](Cc2ccc3ccccc3c2)NC(=O)[C@@H]1CCCNC(=N)N`, the figures for the 50% inhibitory concentration (IC50) in test [4] and in test [2] were 250 nM and greater than 30000 nM, respectively.
For `CN1C(=O)[C@H](CCCN)NC(=O)[C@@H](Cc2ccc(O)cc2)NC(=O)[C@@H]2CCCN2C(=O)[C@H](Cc2ccc3ccccc3c2)NC(=O)[C@@H]1CCCNC(=N)N`, in that order: 2600 nM and greater than 30000 nM.
Regarding `CN1C(=O)[C@H](CCCNC(=N)N)NC(=O)[C@@H](Cc2ccc(Br)cc2)NC(=O)[C@@H]2CCCN2C(=O)[C@H](Cc2ccc3ccccc3c2)NC(=O)[C@@H]1CCCNC(N)=O`, the values for the IC50 in test [4] and in test [2] were 720 nM and greater than 30000 nM, respectively.
For `CN1C(=O)[C@H](CCCNC(=N)N)NC(=O)[C@@H](Cc2ccc3ccccc3c2)NC(=O)[C@@H]2CCCN2C(=O)[C@H](Cc2ccc3ccccc3c2)NC(=O)[C@@H]1CCCNC(N)=O`, in that order: 690 nM and greater than 30000 nM.
On to `CN1C(=O)[C@H](CC(=O)O)NC(=O)[C@@H](Cc2ccc(O)cc2)NC(=O)[C@@H]2CCCN2C(=O)[C@H](Cc2ccc3ccccc3c2)NC(=O)[C@@H]1CCCNC(=N)N`, for which the inhibition entry in test [1] is “inactive”. Moreover, in test [2], the IC50 is greater than 30000 nM.
In the case of `CN1C(=O)[C@H](CCCNC(=N)N)NC(=O)[C@@H](Cc2ccc(O)cc2)NC(=O)[C@@H]2CCCN2C(=O)[C@H](Cc2ccc3ccccc3c2)NC(=O)[C@@H]1CCNC(=N)N`, the concentration for half-maximal inhibition (IC50) in test [4] is 1500 nM; in test [2], greater than 30000 nM.
For `CN1C(=O)[C@H](CCCNC(=N)N)NC(=O)[C@@H](Cc2ccc(Cl)cc2)NC(=O)[C@@H]2CCCN2C(=O)[C@H](Cc2ccc3ccccc3c2)NC(=O)[C@@H]1CCCNC(N)=O` the same measures were 790 nM and greater than 30000 nM.
For `CN1C(=O)[C@H](CCCNC(=N)N)NC(=O)[C@@H](Cc2ccc(O)cc2)NC(=O)[C@@H]2C[C@@H]3CCCC[C@@H]3N2C(=O)[C@H](Cc2ccc3ccccc3c2)NC(=O)[C@@H]1CCCNC(N)=O` the same measures were 350 nM and greater than 30000 nM.
Take `CN1C(=O)[C@H](CCCNC(=N)N)NC(=O)[C@@H](Cc2ccc(O)cc2)NC(=O)[C@@H]2CCCN2C(=O)[C@H](Cc2ccc3ccccc3c2)NC(=O)[C@@H]1CCCNC(=N)N`: the EC50 is 360 nM in test [3] (read-out: EC50); 2200 nM in test [5] (read-out: EC50); 2510 nM in test [5] (read-out: pEC50 (converted)); 270 nM in test [6] (read-out: EC50); 316 nM in test [6] (read-out: pEC50 (converted)); 91 nM in test [7]. The IC50 in test [4] was 860 nM; in test [2] it was greater than 30000 nM.
Consider `CN1C(=O)[C@H](CCCNC(=N)N)NC(=O)[C@@H](CCc2ccccc2)NC(=O)[C@@H]2CCCN2C(=O)[C@H](Cc2ccc3ccccc3c2)NC(=O)[C@@H]1CCCNC(N)=O`, for which the values for the IC50 in test [4] and in test [2] were 5000 nM and greater than 30000 nM, respectively.
For the molecule `CN1C(=O)[C@H](Cc2ccccc2)NC(=O)[C@@H](Cc2ccc(O)cc2)NC(=O)[C@@H]2CCCN2C(=O)[C@H](Cc2ccc3ccccc3c2)NC(=O)[C@@H]1CCCNC(=N)N`, the IC50 is 2000 to 24000 nM in test [4] and greater than 30000 nM in test [2].
Turning to `CN1C(=O)[C@H](CCCNC(=N)N)NC(=O)[C@@H](Cc2c[nH]c3ccccc23)NC(=O)[C@@H]2CCCN2C(=O)[C@H](Cc2ccc3ccccc3c2)NC(=O)[C@@H]1CCCNC(N)=O`, the IC50 in test [4] was 3200 nM; in test [2], greater than 30000 nM.

(Values after ChEMBL document CHEMBL4043305, “Structure-Activity Relationship Study of Cyclic Pentapeptide Ligands for Atypical Chemokine Receptor 3 (ACKR3)” (J Med Chem, 2018).)
